# Measured values taken from US10934310B2, “Inhibitors of Bruton's tyrosine kinase and method of their use” (JANSSEN PHARMACEUTICA NV, priority 2015, dated 2021).
# Biological target: unphosphorylated-BTK kinase domain (UP-BTK), GST-tagged human BTK (389-659aa) (Homo sapiens (Human), UniProt Q06187)
# Assay: BTK Kinase Lanthascreen Binding Assay
# Settings: for BTK_I_binding pIC50: pIC50 = negative log of the IC50 in molar; for IC50: read-out: BTK_I_binding pIC50 (converted)
# Description: BTK Kinase Lanthascreen Binding Assay:
# A BTK kinase lanthascreen binding assay monitors compound binding to unphosphorylated-BTK kinase domain (UP-BTK), by competing with a fluorescent labeled tracer. […] Data were analyzed using Xlfit™ version 5.3 from ID Business Solutions (Guildford), Microsoft Excel add-in. pIC50 refers to the negative log of the IC50 in molar.
# [1] = Lanthascreen binding, 60 minutes incubation
# [2] = compound, 50 nM Tracer 236, 2 nM anti-GST antibody, 60 minutes
# Chain of unphosphorylated-BTK kinase domain (UP-BTK), GST-tagged human BTK (389-659aa) (Q06187 389-659): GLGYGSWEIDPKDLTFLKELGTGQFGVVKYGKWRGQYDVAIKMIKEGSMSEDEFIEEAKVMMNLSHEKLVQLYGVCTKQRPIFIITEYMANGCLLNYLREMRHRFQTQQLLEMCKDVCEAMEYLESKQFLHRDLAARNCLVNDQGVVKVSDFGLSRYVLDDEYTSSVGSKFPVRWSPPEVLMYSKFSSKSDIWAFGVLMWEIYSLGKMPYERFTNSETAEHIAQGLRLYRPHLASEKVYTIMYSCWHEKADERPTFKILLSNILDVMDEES
Structure (SMILES),BTK_I_binding pIC50 [2],further results
"Cc1cc(Oc2ccccc2)ccc1N1C(=O)Nc2c(C(=O)N3CC[C@H](NC(=O)/C(C#N)=C/C4CC4)C3)sc3nccc1c23 [Example 435, (S,E)-2-Cyano-3-cyclopropyl-N-(1-(5-(2-methyl-4-phenoxyphenyl)-4-oxo-4,5-dihydro-3H-1-thia-3,5,8-triazaacenaphthylene-2-carbonyl)pyrrolidin-3-yl)acrylamide]",–,BTK_I_binding pIC50 [1]: 6.15
"CCC(=O)N[C@@H]1CCC[C@@H]1NC(=O)c1sc2nccc3c2c1NC(=O)N3c1ccc(Oc2ccccc2)cc1C [Example 59, 5-(2-Methyl-4-phenoxyphenyl)-4-oxo-N-((1S,2R)-2-propionamidocyclopentyl)-4,5-dihydro-3H-1-thia-3,5,8-triazaacenaphthylene-2-carboxamide]",5.46,–
"CNCC(=O)N[C@H]1CCC[C@H](NC(=O)c2sc3nccc4c3c2NC(=O)N4c2ccc(Oc3ccccc3)cc2C)C1 (relative stereo) [Example 250, 5-(*S)-(2-Methyl-4-phenoxyphenyl)-N-((1R,3S)-3-(2-(methylamino)acetamido)cyclohexyl)-4-oxo-4,5-dihydro-3H-1-thia-3,5,8-triazaacenaphthylene-2-carboxamide]",6.75,–
"CC(=O)N[C@@H]1CC[C@H](NC(=O)c2sc3nccc4c3c2NC(=O)N4c2ccc(OC(C)C)cc2C)C1 [Example 454, N-((1S,3R)-3-Acetamidocyclopentyl)-5-(4-isopropoxy-2-methylphenyl)-4-oxo-4,5-dihydro-3H-1-thia-3,5,8-triazaacenaphthylene-2-carboxamide]",–,BTK_I_binding pIC50 [1]: 6.21
"Cc1cc(Oc2ccccc2)ccc1N1C(=O)Nc2c(C(=O)N[C@H]3CC[C@@H](N(C)C)CC3)sc3nccc1c23 [Example 66, N-((1S,4S)-4-(Dimethylamino)cyclohexyl)-5-(2-methyl-4-phenoxyphenyl)-4-oxo-4,5-dihydro-3H-1-thia-3,5,8-triazaacenaphthylene-2-carboxamide]",6.56,–
"C=CC(=O)N[C@@H]1CC[C@H](NC(=O)c2sc3nccc4c3c2NC(=O)N4c2ccc(Oc3ccccc3)cc2C)C1 [Example 68, N-((1S,3R)-3-acrylamidocyclopentyl)-5-(2-methyl-4-phenoxyphenyl)-4-oxo-4,5-dihydro-3H-1-thia-3,5,8-triazaacenaphthylene-2-carboxamide]",7.78,–
"C=CC(=O)N[C@H]1CCC[C@H]1NC(=O)c1sc2nccc3c2c1NC(=O)N3c1ccc(Oc2ccccn2)nc1C [Example 478, N-((1R,2S)-2-Acrylamidocyclopentyl)-5-(2-methyl-6-(pyridin-2-yloxy)pyridin-3-yl)-4-oxo-4,5-dihydro-3H-1-thia-3,5,8-triazaacenaphthylene-2-carboxamide]",–,IC50: 0.0229 µM
"C=CC(=O)N[C@H]1CCCC[C@H]1NC(=O)c1sc2nccc3c2c1NC(=O)N3c1cnc(OC2CCCC2)cc1C (single isomer, unassigned) [Example 309, N-((1R,2S)-2-Acrylamidocyclohexyl)-5-(*S)-(6-(cyclopentyloxy)-4-methylpyridin-3-yl)-4-oxo-4,5-dihydro-3H-1-thia-3,5,8-triazaacenaphthylene-2-carboxamide]",–,BTK_I_binding pIC50 [1]: 7.91
"N[C@H]1CC[C@H](NC(=O)c2sc3nccc4c3c2NC(=O)N4c2ccc(Oc3ccccc3)cc2)CC1 [Example 146, N-(trans-(1R,4R)-4-Aminocyclohexyl)-4-oxo-5-(4-phenoxyphenyl)-4,5-dihydro-3H-1-thia-3,5,8-triazaacenaphthylene-2-carboxamide]",6.66,–
"CN(C)C/C=C/C(=O)N[C@@H]1CC[C@H](NC(=O)c2sc3nccc4c3c2NC(=O)N4c2ccc(Oc3ccccc3)c(Cl)c2)C1 [Example 248, 5-(3-Chloro-4-phenoxyphenyl)-N-((1S,3R)-3-((E)-4-(dimethylamino)but-2-enamido)cyclopentyl)-4-oxo-4,5-dihydro-3H-1-thia-3,5,8-triazaacenaphthylene-2-carboxamide]",6.98,–
"C=CC(=O)N[C@H]1CCCC[C@@H]1NC(=O)c1sc2nccc3c2c1NC(=O)N3c1ccc(OC(C)C)cc1C (single isomer, unassigned) [Example 272, N-((1S,2S)-2-Acrylamidocyclohexyl)-5-(*R)-(4-isopropoxy-2-methylphenyl)-4-oxo-4,5-dihydro-3H-1-thia-3,5,8-triazaacenaphthylene-2-carboxamide]",–,IC50: > 1 µM
"C=CC(=O)N[C@@H]1CCCC[C@H]1NC(=O)c1sc2nccc3c2c1NC(=O)N3c1ccc(Oc2ccccc2)nc1 [Example 239, N-((1R,2R)-2-Acrylamidocyclohexyl)-4-oxo-5-(6-phenoxypyridin-3-yl)-4,5-dihydro-3H-1-thia-3,5,8-triazaacenaphthylene-2-carboxamide]",6.47,–
"C=CC(=O)N[C@@H]1CCC[C@@H](NC(=O)c2sc3nccc4c3c2NC(=O)N4c2ccc(Oc3ccccc3)nc2)C1 (single isomer, unassigned) [Example 331, N-((1*R,3*R)-3-Acrylamidocyclohexyl)-4-oxo-5-(6-phenoxypyridin-3-yl)-4,5-dihydro-3H-1-thia-3,5,8-triazaacenaphthylene-2-carboxamide]",–,BTK_I_binding pIC50 [1]: 6.66
"Cc1cc(Oc2ccccc2)ccc1N1C(=O)Nc2c(C(=O)N[C@H]3CCC[C@H]3N(C)C)sc3nccc1c23 [Example 51, N-((1S,2R)-2-(Dimethylamino)cyclopentyl)-5-(2-methyl-4-phenoxyphenyl)-4-oxo-4,5-dihydro-3H-1-thia-3,5,8-triazaacenaphthylene-2-carboxamide]",6.01,–
"CC(=O)N[C@H]1CCC[C@H](NC(=O)c2sc3nccc4c3c2NC(=O)N4c2ccc(Oc3ccccc3)cc2C)C1 (single isomer, unassigned) [Example 253, N-((1R,3S)-3-Acetamidocyclohexyl)-5-(*S)-(2-methyl-4-phenoxyphenyl)-4-oxo-4,5-dihydro-3H-1-thia-3,5,8-triazaacenaphthylene-2-carboxamide]",6.63,–
"Cc1nc(Oc2ccccc2)ncc1N1C(=O)Nc2c(C(=O)N[C@@H]3CCC[C@@H]3N)sc3nccc1c23 (single isomer, unassigned) [Example 254, N-((1R,2S)-2-aminocyclopentyl)-5-(*)-(4-methyl-2-phenoxypyrimidin-5-yl)-4-oxo-4,5-dihydro-3H-1-thia-3,5,8-triazaacenaphthylene-2-carboxamide]",6.55,–
"Cc1cc(Oc2ccccc2)ccc1N1C(=O)Nc2c(C(=O)N[C@H]3CC[C@@H](N)CC3)sc3nccc1c23 [Example 25, N-((1S,4S)-4-Aminocyclohexyl)-5-(2-methyl-4-phenoxyphenyl)-4-oxo-4,5-dihydro-3H-1-thia-3,5,8-triazaacenaphthylene-2-carboxamide]",6.66,–
"C=CC(=O)N[C@H]1CCCC[C@H]1NC(=O)c1sc2nccc3c2c1NC(=O)N3c1ccc(Oc2ccccc2)nc1C (single isomer, unassigned) [Example 303, N-((1R,2S)-2-Acrylamidocyclohexyl)-5-(*S)-(2-methyl-6-phenoxypyridin-3-yl)-4-oxo-4,5-dihydro-3H-1-thia-3,5,8-triazaacenaphthylene-2-carboxamide]",–,BTK_I_binding pIC50 [1]: 8.40
"Cc1cc(Oc2ccccc2)ccc1N1C(=O)Nc2c(C(=O)N[C@H]3CC[C@@H](N(C)C)CC3)sc3nccc1c23 [Example 100, N-((1S,4S)-4-(Dimethylamino)cyclohexyl)-5-(*R)-(2-methyl-4-phenoxyphenyl)-4-oxo-4,5-dihydro-3H-1-thia-3,5,8-triazaacenaphthylene-2-carboxamide]",5.86,–
"C=CC(=O)N[C@@H]1CCC[C@H]1NC(=O)c1sc2nccc3c2c1NC(=O)N3c1cnc(CC(C)C)cc1C (single isomer, unassigned) [Example 382, N-((1R,2R)-2-Acrylamidocyclopentyl)-5-(*S)-(6-isobutyl-4-methylpyridin-3-yl)-4-oxo-4,5-dihydro-3H-1-thia-3,5,8-triazaacenaphthylene-2-carboxamide]",–,BTK_I_binding pIC50 [1]: 7.68
"CC(=O)N[C@@H]1CCC[C@@H]1NC(=O)c1sc2nccc3c2c1NC(=O)N3c1ccnc(-c2ccccc2)c1 [Example 258, N-((1S,2R)-2-Acetamidocyclopentyl)-4-oxo-5-(2-phenylpyridin-4-yl)-4,5-dihydro-3H-1-thia-3,5,8-triazaacenaphthylene-2-carboxamide]",–,IC50: > 1 µM
"Cc1cc(Oc2ccccc2)ccc1N1C(=O)Nc2c(C(=O)N[C@@H]3CCC[C@H]3N(C)C)sc3nccc1c23 [Example 29, N-((1R,2R)-2-(Dimethylamino)cyclopentyl)-5-(2-methyl-4-phenoxyphenyl)-4-oxo-4,5-dihydro-3H-1-thia-3,5,8-triazaacenaphthylene-2-carboxamide]",6.81,–
"CC(=O)N[C@@H]1CCC[C@@H]1NC(=O)c1sc2nccc3c2c1NC(=O)N3c1ccc(Oc2ccccc2)cc1C [Example 57, N-((1S,2R)-2-Acetamidocyclopentyl)-5-(2-methyl-4-phenoxyphenyl)-4-oxo-4,5-dihydro-3H-1-thia-3,5,8-triazaacenaphthylene-2-carboxamide]",5.65,–
"Cc1cc(Oc2ccccc2)ccc1N1C(=O)Nc2c(C(=O)N[C@@H]3CCC[C@H]3O)sc3nccc1c23 [Example 9, N-((1R,2R)-2-Hydroxycyclopentyl)-5-(2-methyl-4-phenoxyphenyl)-4-oxo-4,5-dihydro-3H-1-thia-3,5,8-triazaacenaphthylene-2-carboxamide]",7.41,–
"N[C@H]1CCC[C@H]1NC(=O)c1sc2nccc3c2c1NC(=O)N3c1cc(-c2ccccc2)ncn1 [Example 281, N-((1R,2S)-2-Aminocyclopentyl)-4-oxo-5-(6-phenylpyrimidin-4-yl)-4,5-dihydro-3H-1-thia-3,5,8-triazaacenaphthylene-2-carboxamide]",–,IC50: > 1 µM
